The values below come from patent US6037351A, “Method of inhibiting hepatitis B virus” (priority 1996, dated 2000).

The test system of one assay is hepatitis B virus (HBV). The experiment in a line: Progeny HBV in medium of infected HepG2 cells (immunoprecipitation, PCR, densitometry). The format is cell-based, HBV in human hepatoma HepG2 cells. The note with it: NBDNJ 700 μg/ml (3.2 mM), HepG2 cells infected with protease processed HBV, five days after infection. From the text: FIG. 3A and FIG. 3C: DNA from virions, immunoprecipitated with monoclonal antibody to MHBs, was amplified by polymerase chain reaction (PCR) and resolved by agarose gel electrophoresis.
These bands were imaged by densitometry and the areas under the peaks are shown in FIG. 3C in which the average of the two samples of each NBDNJ concentration was plotted.
Infection of HepG2 cells:
HBV was purified from human serum or from the medium of cultured cells by sedimentation to between 40 and 46% sucrose (w/w) following ultracentrifugation, [Seifer et al., Virol. 179, 300-311 (1990)]. Virions were dialyzed in 0.02 M Potassium Phosphate Buffer, pH 7.4, concentrated, treated with V8 protease (from Staphylococcus aureus, Sigma Chemical Co.) overnight at 37° C. centrifuged for 8 hours through a 20% sucrose/0.01M Tris, pH 7.4, 0.14 M NaCl, 0.005 M EDTA (TNE) cushion. The pellets were re-suspended in growth medium and then used to inoculate HepG2 cells.
Progeny virus in the medium of HepG2 cells infected with serum derived HBV was detected by precipitating medium with monoclonal antibody to the PreS2 epitopes. DNA from immunoprecipated virions was amplified by a polymerase chain reaction (PCR) using primers from nucleotides 2815 and 190 with respect to the viral genome (using the EcoRI site as nucleotide 1). […]

In a further assay the test system is HBs proteins. Kind of assay: ELISA of HBs proteins in virion fraction of medium (sucrose gradient). It is filed as cell-based, HBV. As to conditions: 40-46% sucrose fraction. As to the method:
FIG. 3D: Histogram of the area under the averaged peaks of the densitometric tracing of the gel in FIG. 3B. […] Equal volumes of the indicated samples were tested for HBV envelope antigens using the enzyme-linked imminosorbent assay (ELISA) method. Samples of unfractionated medium (FIGS. 4A, 4B and 4C) or partially purified virus (FIGS. 4D, 4E and 4F) from 3-day cultures were tested for HBV SHBs ("S) (FIGS. 4A and 4D), LHBs: "PreS1" (FIGS. 4B and 4E) or MHBs "PreS2" (FIGS. 4C and 4F) epitopes. Cultures were maintained in the indicated concentrations of NBDNJ, expressed in millimolar units and shown along the X axis.
Detection of HBV proteins by the Enzyme Linked Immunoabsorbant assay (ELISA).
Monoclonal antibodies used herein are well-known and are described by Heerman et al., J. Virol. 52, 396-402 (1984), for antibody to PreS1 (MA 18/7); Heerman et al., Intervirology 28: 14-21 (1987), for antibody to PreS2 (Q 19/10), see also Gerlich and Bruss, Molecular Biology of Hepatitis B Virus, ed. […]
Bound antigen was detected by incubation with peroxidase conjugated goat anti-HBs antibody (Behring) followed by development in orthophenylenediamine (0.33 mg/ml PBS-peroxide solution). Optical densities were read in a Behring plate reader. Tests on purified virus and total medium were conducted over a series of sample dilutions to insure proper quantification. […]
(In general: In an ELISA, binding on a coated surface is turned into a signal by an enzyme label.)

A further assay deals with MHBs (PreS2). Kind of assay: Western blot of MHBs in sucrose gradient fractions. The format is cell-based, HBV. As to the method:
Polyethylene glycol (PEG) precipitates of culture medium (FIG. 5A) or partly purified virions, HBs filaments and spheres from untreated (FIG. 5B) and NBDNJ treated (FIG. 5C) cultures were resolved by SDS-PAGE (13.5% acrylamide), transferred to immobilin paper and incubated with PreS1 and PreS2 specific monoclonal antibody.
Samples were dissolved in loading buffer, resolved by electrophoresis through 13.5% SDS polyacrylamide gels (SDS-PAGE) and transferred to PVDF (Millipore) membranes and blocked with 5% powdered milk, as in Gultekin and Heerman, Analytical Biochem. 172, 320-329 (1989). After incubation with primary antibody overnight at room temperature in 1% bovine serum albumin (BSA) in TNE and second antibody (peroxidase conjugated goat anti-mouse IgG serum) for 1 hour in TNE at room temperature, membranes were developed in peroxide-diaminobenzidine (Sigma) PBS, as described in the manufacturer's instructions.
The ELISA results were confirmed by Western blot analysis of fractions from the sucrose gradient containing either intact virus, filaments or spheres (FIGS. 5B, from untreated cultures, and 5C, from NBDNJ treated cultures). […]
Fractions distal to the virion containing fractions (near the bottom of the gradient) were resolved in lane 1 to show specificity of the antibody. […] The images shown in FIGS. 5B and 5C) were quantified by densitometry.
(In general: Immunoblotting shows a protein as a band on a membrane.)

On to `CCCCN1C[C@H](O)[C@@H](O)[C@H](O)[C@H]1CO` [NBDNJ, N-butyl-1,5-dideoxy-1,5-imino-D-glucitol], for which the “viral DNA in medium of infected cells vs untreated” value in the assay with hepatitis B virus (HBV) is “an order of magnitude less viral DNA”. Also, the “HBs proteins in virion samples from medium” value in the assay with HBs proteins (NBDNJ 2.25 mM (approximately 500 μg/ml)) and in the assay on HBs proteins (NBDNJ 4.5 mM (approximately 1000 μg/ml)) was “virtually no detectable HBs proteins” throughout. The “decrease of MHBs in virion samples compared to untreated” value with MHBs (PreS2) (Western blot densitometry, FIG. 5C lane 2 vs FIG. 5B lane 2) is reported as 12 fold. For the same compound, in the assay on MHBs (PreS2) (medium of NBDNJ treated cultures, FIGS. 5B and 5C), the “decrease in MHBs (PreS2 epitope) (in words)” value is “particularly severe”.
